The values that follow come from BindingDB's records for PubMed 20126400 (University of Oklahoma, 2010).

Holding throughout (assay): Ray2010 Assay 74
The target in test [1] is Sodium-dependent serotonin transporter (Homo sapiens, UniProt P31645). An excerpt: (§1) Table S2 shows raw Ki data for the current study combined with data collected from the literature for the ten additional compounds.
The target of test [2] is Kappa-type opioid receptor (Homo sapiens, UniProt P41145).
From the text: as §1

The target in test [3] is 5-hydroxytryptamine receptor 1E (Homo sapiens, UniProt P28566).
Sequence of 5-hydroxytryptamine receptor 1E (P28566 whole entry): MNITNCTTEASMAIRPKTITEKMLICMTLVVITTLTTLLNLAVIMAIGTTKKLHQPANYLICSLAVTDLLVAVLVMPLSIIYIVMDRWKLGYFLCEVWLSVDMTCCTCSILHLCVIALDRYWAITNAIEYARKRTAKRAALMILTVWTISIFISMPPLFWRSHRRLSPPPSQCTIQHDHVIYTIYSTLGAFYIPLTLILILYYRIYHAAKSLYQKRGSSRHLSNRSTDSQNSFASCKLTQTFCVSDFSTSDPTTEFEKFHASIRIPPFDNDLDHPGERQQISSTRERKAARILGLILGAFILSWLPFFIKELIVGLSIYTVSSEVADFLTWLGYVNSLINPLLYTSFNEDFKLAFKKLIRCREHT
From the text: as §1

For test [4], the target named is T1, D(4) dopamine receptor (Homo sapiens, UniProt P21917).
T1 sequence (P21917 whole entry): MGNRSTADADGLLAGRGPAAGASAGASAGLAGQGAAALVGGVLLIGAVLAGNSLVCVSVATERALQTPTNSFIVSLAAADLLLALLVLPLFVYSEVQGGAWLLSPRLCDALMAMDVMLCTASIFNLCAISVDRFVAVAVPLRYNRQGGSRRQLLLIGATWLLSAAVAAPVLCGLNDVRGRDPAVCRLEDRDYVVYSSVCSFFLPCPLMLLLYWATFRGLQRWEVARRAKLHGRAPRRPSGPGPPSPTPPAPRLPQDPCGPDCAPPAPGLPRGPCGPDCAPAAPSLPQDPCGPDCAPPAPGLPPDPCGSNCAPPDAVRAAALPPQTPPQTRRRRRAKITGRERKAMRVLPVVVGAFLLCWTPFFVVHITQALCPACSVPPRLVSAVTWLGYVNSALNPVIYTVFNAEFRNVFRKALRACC
From the text: as §1

The target of test [5] is D(1A) dopamine receptor (Homo sapiens, UniProt P21728).
Sequence of D(1A) dopamine receptor (P21728 whole entry): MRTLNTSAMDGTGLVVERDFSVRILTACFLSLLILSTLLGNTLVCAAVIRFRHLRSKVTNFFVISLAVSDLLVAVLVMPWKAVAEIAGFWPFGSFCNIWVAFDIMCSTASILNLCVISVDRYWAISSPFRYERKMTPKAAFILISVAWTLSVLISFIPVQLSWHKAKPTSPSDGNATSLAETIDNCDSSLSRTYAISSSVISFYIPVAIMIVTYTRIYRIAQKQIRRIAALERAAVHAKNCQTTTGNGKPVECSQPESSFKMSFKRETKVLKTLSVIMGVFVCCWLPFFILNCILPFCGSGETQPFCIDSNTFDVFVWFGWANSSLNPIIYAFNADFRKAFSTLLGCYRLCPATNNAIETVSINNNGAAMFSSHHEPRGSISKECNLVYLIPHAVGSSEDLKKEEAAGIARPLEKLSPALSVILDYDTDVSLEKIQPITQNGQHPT
From the text: as §1

The target in test [6] is T2, Muscarinic acetylcholine receptor M1 (Homo sapiens, UniProt P11229).
T2 sequence (P11229 whole entry): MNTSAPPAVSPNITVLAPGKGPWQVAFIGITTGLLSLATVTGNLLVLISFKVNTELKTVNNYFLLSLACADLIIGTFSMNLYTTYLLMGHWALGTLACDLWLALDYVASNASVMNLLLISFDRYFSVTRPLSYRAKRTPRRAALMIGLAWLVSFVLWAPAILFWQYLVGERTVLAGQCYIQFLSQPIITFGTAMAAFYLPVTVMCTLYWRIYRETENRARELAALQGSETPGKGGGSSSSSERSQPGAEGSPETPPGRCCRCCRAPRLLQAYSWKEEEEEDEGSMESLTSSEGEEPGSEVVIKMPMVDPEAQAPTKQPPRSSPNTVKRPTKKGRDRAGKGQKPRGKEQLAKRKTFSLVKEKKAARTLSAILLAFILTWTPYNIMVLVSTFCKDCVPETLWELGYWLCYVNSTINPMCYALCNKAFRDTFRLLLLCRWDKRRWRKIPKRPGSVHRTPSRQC
From the text: as §1

The target in test [7] is Sodium-dependent noradrenaline transporter (Homo sapiens, UniProt P23975).
Sequence of Sodium-dependent noradrenaline transporter (P23975 whole entry): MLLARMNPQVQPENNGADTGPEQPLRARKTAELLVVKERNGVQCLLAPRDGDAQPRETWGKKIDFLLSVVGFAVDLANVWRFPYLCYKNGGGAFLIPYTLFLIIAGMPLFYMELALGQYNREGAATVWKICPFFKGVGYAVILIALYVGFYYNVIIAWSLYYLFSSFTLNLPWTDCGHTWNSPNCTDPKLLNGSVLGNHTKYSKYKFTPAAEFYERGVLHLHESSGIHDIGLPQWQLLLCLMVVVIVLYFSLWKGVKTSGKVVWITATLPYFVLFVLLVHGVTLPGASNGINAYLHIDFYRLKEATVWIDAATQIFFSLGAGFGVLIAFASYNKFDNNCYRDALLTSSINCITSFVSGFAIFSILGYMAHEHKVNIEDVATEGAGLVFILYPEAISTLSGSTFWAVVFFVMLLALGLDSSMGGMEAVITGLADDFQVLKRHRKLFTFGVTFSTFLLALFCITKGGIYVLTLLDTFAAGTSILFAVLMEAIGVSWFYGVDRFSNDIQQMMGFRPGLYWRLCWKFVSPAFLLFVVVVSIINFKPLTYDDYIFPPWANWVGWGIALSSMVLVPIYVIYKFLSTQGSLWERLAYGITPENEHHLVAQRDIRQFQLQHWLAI
From the text: as §1

In test [8] the target is T3, 5-hydroxytryptamine receptor 1A (Homo sapiens, UniProt P08908).
T3 sequence (P08908 whole entry): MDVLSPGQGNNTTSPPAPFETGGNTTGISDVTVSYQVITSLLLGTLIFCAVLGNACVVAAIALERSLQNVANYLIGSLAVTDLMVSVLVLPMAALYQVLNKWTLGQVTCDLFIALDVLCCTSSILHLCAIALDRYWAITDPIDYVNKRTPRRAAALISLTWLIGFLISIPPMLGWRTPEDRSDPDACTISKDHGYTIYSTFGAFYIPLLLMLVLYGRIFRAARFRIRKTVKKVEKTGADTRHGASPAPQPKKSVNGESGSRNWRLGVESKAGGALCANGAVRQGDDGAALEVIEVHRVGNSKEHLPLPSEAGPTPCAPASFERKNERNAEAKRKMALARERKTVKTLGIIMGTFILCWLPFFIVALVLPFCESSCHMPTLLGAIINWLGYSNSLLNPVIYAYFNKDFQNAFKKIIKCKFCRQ
From the text: as §1

Test [9] concerns the target T4, Gamma-aminobutyric acid receptor subunit alpha-1 (Homo sapiens, UniProt P14867).
T4 sequence (P14867 whole entry): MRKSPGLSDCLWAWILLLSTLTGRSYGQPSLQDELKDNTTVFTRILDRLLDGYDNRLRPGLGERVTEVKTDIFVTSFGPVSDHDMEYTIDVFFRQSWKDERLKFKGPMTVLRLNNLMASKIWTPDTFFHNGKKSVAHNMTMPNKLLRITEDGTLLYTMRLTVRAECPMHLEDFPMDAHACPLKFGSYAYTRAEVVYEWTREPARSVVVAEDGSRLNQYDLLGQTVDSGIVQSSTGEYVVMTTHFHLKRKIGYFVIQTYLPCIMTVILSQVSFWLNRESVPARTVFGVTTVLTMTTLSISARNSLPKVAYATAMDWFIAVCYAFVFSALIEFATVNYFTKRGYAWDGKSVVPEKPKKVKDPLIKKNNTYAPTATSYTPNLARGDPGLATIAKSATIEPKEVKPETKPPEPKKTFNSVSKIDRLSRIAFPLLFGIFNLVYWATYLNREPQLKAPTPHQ
From the text: as §1

For test [10], the target named is 5-hydroxytryptamine receptor 2A (Homo sapiens, UniProt P28223).
Sequence of 5-hydroxytryptamine receptor 2A (P28223 whole entry): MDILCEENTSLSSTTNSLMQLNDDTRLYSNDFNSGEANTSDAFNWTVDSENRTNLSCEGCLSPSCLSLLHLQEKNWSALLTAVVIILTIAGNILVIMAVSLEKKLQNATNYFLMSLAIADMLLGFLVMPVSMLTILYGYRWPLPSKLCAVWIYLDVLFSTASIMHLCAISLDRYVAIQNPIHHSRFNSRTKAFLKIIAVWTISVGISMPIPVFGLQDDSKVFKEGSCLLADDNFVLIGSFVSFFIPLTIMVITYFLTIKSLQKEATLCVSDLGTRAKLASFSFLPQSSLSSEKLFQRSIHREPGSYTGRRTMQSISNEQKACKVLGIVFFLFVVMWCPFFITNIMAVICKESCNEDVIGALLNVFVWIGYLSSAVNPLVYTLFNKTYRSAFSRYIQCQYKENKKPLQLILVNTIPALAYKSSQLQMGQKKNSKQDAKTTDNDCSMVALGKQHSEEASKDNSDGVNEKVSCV
From the text: as §1

Test [11] has as its target T5, Muscarinic acetylcholine receptor M2 (Homo sapiens, UniProt P08172).
T5 sequence (P08172 whole entry): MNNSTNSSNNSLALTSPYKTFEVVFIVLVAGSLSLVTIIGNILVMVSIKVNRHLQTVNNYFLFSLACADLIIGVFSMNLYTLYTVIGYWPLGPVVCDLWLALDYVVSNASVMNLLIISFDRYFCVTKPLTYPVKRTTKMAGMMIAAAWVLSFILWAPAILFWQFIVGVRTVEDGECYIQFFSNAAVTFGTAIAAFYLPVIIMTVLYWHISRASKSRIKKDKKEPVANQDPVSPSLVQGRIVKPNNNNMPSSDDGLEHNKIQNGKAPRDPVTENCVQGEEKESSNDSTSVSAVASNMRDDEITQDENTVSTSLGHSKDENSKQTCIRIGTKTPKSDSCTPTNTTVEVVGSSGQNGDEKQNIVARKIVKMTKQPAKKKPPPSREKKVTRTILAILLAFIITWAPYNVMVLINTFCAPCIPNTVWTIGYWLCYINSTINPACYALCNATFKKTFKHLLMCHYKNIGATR
From the text: as §1

Sequence of Kappa-type opioid receptor (P41145 whole entry): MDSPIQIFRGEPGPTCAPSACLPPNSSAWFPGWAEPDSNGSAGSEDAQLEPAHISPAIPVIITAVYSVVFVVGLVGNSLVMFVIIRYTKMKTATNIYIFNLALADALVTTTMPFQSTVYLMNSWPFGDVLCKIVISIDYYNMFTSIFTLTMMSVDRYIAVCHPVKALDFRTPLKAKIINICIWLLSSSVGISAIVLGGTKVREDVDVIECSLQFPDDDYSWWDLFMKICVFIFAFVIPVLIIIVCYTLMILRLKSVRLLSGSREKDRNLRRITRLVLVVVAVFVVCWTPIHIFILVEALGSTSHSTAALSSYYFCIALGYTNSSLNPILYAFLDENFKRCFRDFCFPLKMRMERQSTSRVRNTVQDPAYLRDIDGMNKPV
Sequence of Sodium-dependent serotonin transporter (P31645 whole entry): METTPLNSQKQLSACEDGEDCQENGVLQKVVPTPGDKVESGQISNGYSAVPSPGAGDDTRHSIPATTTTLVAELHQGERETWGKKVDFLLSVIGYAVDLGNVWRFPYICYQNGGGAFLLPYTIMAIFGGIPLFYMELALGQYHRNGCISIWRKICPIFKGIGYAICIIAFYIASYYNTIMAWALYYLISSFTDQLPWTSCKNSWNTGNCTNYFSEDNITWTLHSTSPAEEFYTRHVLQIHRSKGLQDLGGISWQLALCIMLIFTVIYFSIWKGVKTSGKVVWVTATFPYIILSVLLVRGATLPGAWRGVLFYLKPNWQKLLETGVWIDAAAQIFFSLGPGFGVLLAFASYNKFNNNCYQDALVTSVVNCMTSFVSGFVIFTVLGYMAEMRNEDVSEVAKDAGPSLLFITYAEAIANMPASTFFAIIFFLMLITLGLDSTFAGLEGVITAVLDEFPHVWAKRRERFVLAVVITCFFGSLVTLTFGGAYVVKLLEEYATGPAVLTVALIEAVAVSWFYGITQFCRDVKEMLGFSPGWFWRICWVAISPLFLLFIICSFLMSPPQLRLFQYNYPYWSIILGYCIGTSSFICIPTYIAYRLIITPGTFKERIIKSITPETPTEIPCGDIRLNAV

For orientation: Ki means a dissociation constant, usually derived from enzyme kinetics or from competition with a known ligand. Regarding `COc1cc(CC(C)N)c(OC)cc1C` (stereo not drawn) [(+/-)2-(2,5-Dimethoxy-4-methyl-phenyl)-1-methyl-ethylamine], the Ki is over 10 µM in [1]; over 10 µM in test [2]; 3.54 µM in test [3]; over 10 µM in test [4]; over 10 µM in test [5]; over 10 µM in [6]. The Ki in [7] is over 10 µM; in test [8], 3.66 µM; in test [9], over 10 µM; in [10] it was 0.507 µM; in test [11] it was over 10 µM.
In the case of `CN(C)CCc1c[nH]c2cc(F)ccc12` [6-f-dmt], the Ki in [1] is 0.145 µM; in [2], over 10 µM; in [3], 0.461 µM; in test [4] it was 1.45 µM; in test [5], 0.547 µM; in [6], over 10 µM. Moreover, the Ki is over 10 µM in test [7], 0.393 µM in test [8], over 10 µM in test [9] and over 10 µM in test [11].
Take `CCSc1cc(OC)c(CCN)cc1OC` [2C-T-2]: the Ki in test [1] is over 10 µM; in test [2], over 10 µM; in [3] it was 0.415 µM; in test [4], over 10 µM; in test [5], over 10 µM; in test [6], over 10 µM. For the same compound, the Ki in [7] was over 10 µM; in test [8] it was 0.381 µM; in test [9], over 10 µM; in [10], 0.0399 µM; in [11] it was over 10 µM.
In the case of `CCSc1cc(OC)c(CC(N)CC)cc1OC` (stereo not given) [1-(4-Ethylsulfanyl-2,5-dimethoxy-benzyl)-propylamine], the Ki in [1] was over 10 µM; in test [2], over 10 µM; in test [3], 9.88 µM; in test [4], over 10 µM; in test [5], over 10 µM; in [6], over 10 µM. Further, the Ki was over 10 µM in test [7]; 5.34 µM in [8]; over 10 µM in test [9]; 0.274 µM in [10]; over 10 µM in [11].
For the compound `CCOc1cc(OC)c(CC(C)N)cc1OC` (stereo not given), the Ki in test [1], in test [2], in test [3], in test [4], in [5] and in [6] was over 10 µM in each case. Moreover, the Ki is over 10 µM in [7]; over 10 µM in test [8]; over 10 µM in test [9]; 3.95 µM in test [10]; over 10 µM in test [11].
Regarding `COc1ccc2[nH]cc(CCN(C(C)C)C(C)C)c2c1` [5-meo-dipt], the Ki is 2.53 µM in [1]; over 10 µM in test [2]; over 10 µM in test [3]; over 10 µM in test [4]; over 10 µM in test [5]; over 10 µM in test [6]. Further, the Ki in [7] was over 10 µM; in test [8], 0.132 µM; in test [9] it was over 10 µM; in test [11] it was over 10 µM.
With `COC(=O)[C@@H]1C[C@H](OC(C)=O)C(=O)[C@H]2[C@@]1(C)CC[C@H]1C(=O)O[C@H](c3ccoc3)C[C@]21C` [2S,4aR,6a(R,7R,9S,10aS,10bR)-9-(acetyloxy)-2-(furan-3-yl)dodecahydro-6a,10b-dimethyl-4,10-dioxo-2H-naphtho[2,1-c]pyran-7-carboxylic acid methyl ester], the Ki in test [1], in [3], in [4], in test [5], in test [6] and in test [8] was over 10 µM each time. In addition, the Ki in test [10] and in test [11] was over 10 µM each time.
“CAS_82830-44-2::(2R)-1-(4-iodo-2,5-dimethoxyphenyl)propan-2-amine::DOI,(-)::US20250270173, Compound DOI”: the Ki in test [1] was 0.685 µM; in test [2] it was over 10 µM; in test [3] it was 1.01 µM; in test [4] it was over 10 µM; in test [5], 9.69 µM; in test [6], 2.72 µM. The Ki in test [7] is over 10 µM; in [8], 2.22 µM; in [9], over 10 µM; in [10], 0.165 µM; in test [11], 1.99 µM.
Turning to `COc1cc(CCN)c(OC)cc1Br`, the Ki in test [1] was over 10 µM; in test [2], over 10 µM; in test [3] it was 0.12 µM; in test [4], over 10 µM; in test [5] it was over 10 µM; in [6], over 10 µM. Further, the Ki was over 10 µM in [7]; 0.241 µM in [8]; over 10 µM in test [9]; 0.0276 µM in test [10]; over 10 µM in test [11].
Regarding `CNC(C)Cc1ccc2c(c1)OCO2` (stereo not given) [mdma], the inhibition constant Ki in test [1], in [2], in test [3], in test [4], in [5] and in test [6] was over 10 µM each time. The Ki in test [7], in test [8], in test [9], in test [10] and in [11] was over 10 µM each time.
As for `COc1cc(CC(C)N)c(OC)cc1Br` (stereo not drawn) [2-(4-Bromo-2,5-dimethoxy-phenyl)-1-methyl-ethylamine((-)-DOB)], the Ki was 8.54 µM in test [1]; over 10 µM in test [2]; 1.43 µM in [3]; over 10 µM in [4]; over 10 µM in test [5]; over 10 µM in test [6]. Also, the Ki in test [7] is over 10 µM; in [8], 2.55 µM; in [9], over 10 µM; in test [11] it was over 10 µM.
Turning to `CCc1cc(OC)c(CCN)cc1OC` [2-(2,5-dimethoxy-4-ethylphenyl)ethylamine], the Ki in test [1] was over 10 µM; in test [2] it was over 10 µM; in test [3], 0.626 µM; in [4], over 10 µM; in [5] it was over 10 µM; in test [6], over 10 µM. Further, the Ki in [7] was over 10 µM; in test [9] it was over 10 µM; in test [10] it was 0.0439 µM; in [11], over 10 µM.
